Data reported in patent US12239643B2, “Therapeutic agent for inflammatory diseases, autoimmune diseases, fibrotic diseases, and cancer diseases” (MEIJI SEIKA PHARMA CO., LTD., priority 2018, dated 2025).
Where two headings read alike, the source gives them in different places.

Legend:
TNFα [1] = test: Cytokine suppression using whole human blood: TNFα (lipopolysaccharide stimulus); format: cell-based; conditions: Homo sapiens, human whole blood; read-out: TNFα Inhibitory Activity, Human Whole Blood (Test Example 3)
Procedure: The test compound dissolved in dimethyl sulfoxide was added to a 96-well plate, and RPMI-1640 medium and human peripheral blood containing sodium heparin were added, followed by culture at 37° C. under 5% CO2 for 1 hour. A medium containing only dimethyl sulfoxide instead of the test compound was added to the control well. To each well, lipopolysaccharide (final concentration 10 ng/mL) as a TNFα production stimulant, or phytohaemagglutinin (final concentration 20 μg/mL) as an IL-17A production stimulant, or CytoStim reagent ( 1/100 concentration) and CD28 antibody (final concentration 2.5 ng/mL) as an IL-4 production stimulant and an IL-5 production stimulant were added, followed by culture at 37° C. under 5% CO2. The culture was carried out for about 18 hours for the evaluation of the amount of TNFα, and for about 48 hours for the evaluation of the amounts of IL-17A, IL-4, and IL-5.
After collecting the culture supernatant after culturing, the amount of each cytokine was measured by the sandwich ELISA method. The cytokine production suppression rate (inhibition rate) by the test compound was calculated by the following formula from the cytokine production amount when the test compound was added, with the cytokine production amount for the control well as 100%. Inhibition Rate={1−(Cytokine Amount at Addition of Each Test Compound)/(Cytokine Amount for Control Well)}×100
In addition, the cytokine inhibitory activity (concentration for the inhibition rate of 50%) of the test compound was calculated from the inhibition curves based on the inhibition rates for various concentrations of the test compound.
The measurement results obtained by measuring the TNFα inhibitory activity and IL-5 inhibitory activity (50% inhibitory concentration) of the test compounds by the above method were evaluated in accordance with the following evaluated basis; A: less than 100 nM, B: 100 nM or more and less than 500 nM, and C: 500 nM or more. In addition, the measurement results obtained by measuring the IL-17A inhibitory activity and IL-4 inhibitory activity (50% inhibitory concentration) of the test compounds were evaluated in accordance with the following evaluated basis; A: less than 500 nM, B: 500 nM or more and less than 5000 nM, and C: 5000 nM or more.

[2] = Hepatic metabolic stability (rat liver microsome method); format: in vitro ADME; conditions: rat liver microsomes 0.5 mg/mL, test substance 1 μM, NADPH 1 mM, 37° C., 30 minutes
Summary of the method: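 Rat liver microsomes (0.5 mg/mL final) with test compound (1 μM final) in 100 mM potassium phosphate pH 7.4, 37° C; reaction started with NADPH (1 mM final) after 5 min preincubation. Acetonitrile stop at 0 and 30 min, LC-MS quantitation; % remaining = 30 min/0 min ×100, graded A ≥75%, B 60–<75%, C 45–<60%, D <45%.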

[3] = test system: oxazolone-induced auricle edema, BALB/c mice; test: Hapten repeated application mouse chronic dermatitis model (oral, topical); format: in vivo; conditions: for Mouse Chronic Dermatitis Model (Test Example 8), Topical: edema suppression rate: 20 μL of 0.3 to 3% solution once or twice a day for 10 days
Procedure: Evaluation was carried out using female BALB/c mice (7 to 8 weeks of age). First, the hair of the abdomen of the mice was treated with a hair clipper, and then 150 μL of a 3% oxazolone acetone/ethanol solution was applied to the abdomen as a hapten. One week later, 20 μL/ear of 1% oxazolone acetone/ethanol solution was applied to the outer surface of the auricle of both ears of the mice 3 times/week to induce inflammation. A 1% oxazolone-acetone/ethanol solution was applied every other day for 10 days from 1 week after the start of inflammation induction. In addition, for 10 days from 1 week after the start of inflammation induction, the test compound suspended in 0.5% w/v methylcellulose (0.5% MC) was orally administered at 0.3 to 10 mg/kg twice a day (10 μL/g), or 20 μL of a 0.3 to 3% test compound dissolved in an acetone/ethanol solution was applied once or twice a day (topical administration). A 1% oxazolone was not applied to the blank. The control was one in which 1% oxazolone was applied and only 0.5% MC was orally administered without using the test compound, or only an acetone/ethanol solution was applied.
After administration for 10 days, auricle thickness was measured using a dial thickness gauge, and the changes in auricular thickness before the treatment (immediately before the start of administration of the test compound) and after the treatment (after the administration of the test compound for 10 days) were used to calculate the edema suppression rate by the following formula. Edema Suppression Rate (%)={1−(Auricle Thickness After Treatment by Test Compound−Auricle Thickness Before Treatment by Test Compound)/(Auricle Thickness After Treatment of Control−Auricle Thickness Before Treatment of Control)}×100
The measurement results obtained by measuring the edema suppression rate at the time of oral administration of each test compound by the above method were evaluated in accordance with the following evaluated basis; A: 70% or more, B: 40% or more and less than 70%, and C: less than 40%. In addition, the measurement results obtained by measuring the edema suppression rate at the time of topical administration of each test compound were evaluated in accordance with the following evaluated basis; A: 100% or more, B: 70% or more and less than 100%, and C: less than 70%.

PDE4 = test: Evaluation of PDE4 inhibitory activity, scintillation proximity assay; format: biochemical
Summary of the method: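 SPA with [2,8-3H]-cAMP and diluted PDE4 enzyme preparation in 50 mM Tris-HCl pH 7.4, 8.3 mM MgCl2, 1.7 mM EGTA, 3 mg/mL BSA, 120 min at room temperature. Product captured on ZnSO4-containing YSi-SPA beads, scintillation counted; IC50 from inhibition curves vs DMSO control and no-enzyme blank.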

[4] = test system: oxazolone-induced auricle edema, BALB/c mice; test: Mouse delayed type hypersensitivity (DTH) model (topical); format: in vivo; conditions: 20 μL applied to auricle, 24 hours after application
Procedure: Evaluation was carried out using female BALB/c mice (7 to 8 weeks of age). First, the hair of the abdomen of the mice was treated with a hair clipper, and then 150 μL of a 3% oxazolone acetone/ethanol solution was applied to the abdomen as a hapten. Five days later, 20 μL/ear of a 1% oxazolone.acetone/ethanol solution was applied to the outer surface of the auricle of both ears of the mouse to induce inflammation. Thirty minutes after the start of inflammation induction, 20 μL of the test compound dissolved in an acetone/ethanol solution was applied to the auricle. A 1% oxazolone was not applied to the blank. The control was one in which 1% oxazolone was applied and only an acetone/ethanol solution was applied without using the test compound. The auricle thickness 24 hours after application of the test compound was measured with a dial thickness gauge, and the value obtained by subtracting the blank value was used to calculate the edema suppression rate by the following formula. Edema Suppression Rate (%)={1−(Value at Addition of Each Test Compound−Blank Value)/(Control Value−Blank Value)}×100 The measurement results obtained by measuring the edema suppression rate at the time of topical administration of each test compound by the above method were evaluated in accordance with the following evaluated basis; A: 60% or more, B: 40% or more and less than 60%, and C: less than 40%.

TNFα [5] = test: Cytokine suppression using human peripheral blood mononuclear cells: TNFα; format: cell-based; conditions: human PBMC, lipopolysaccharide 1 ng/mL; read-out: TNFα Inhibitory Activity, Human PBMC (Test Example 4)
Procedure: First, peripheral blood mononuclear cells (PBMC) were separated from whole blood by specific gravity centrifugation. Then, the isolated peripheral blood mononuclear cells were added to RPMI-1640 medium (containing 10% fetal bovine serum, penicillin, streptomycin, L-glutamine, and 2-mercaptoethanol), and cultured in a 96-well plate at 37° C. under 5% CO2 for 0 to 1 hour. The test compound dissolved in dimethyl sulfoxide was added to each well, followed by further culture at 37° C. under 5% CO2 for 1 hour. A medium containing only dimethyl sulfoxide instead of the test compound was added to the control well. To each well, lipopolysaccharide (final concentration 1 ng/mL) as a TNFα production stimulant and an IL-23 production stimulant, or concanavalin A (final concentration 20 μg/mL) as an IL-17A production stimulant was added, followed by culture at 37° C. under 5% CO2. In addition, as IL-4 production stimulus, IL-5 production stimulus, and IL-13 production stimulus, PBMC was seeded on a 96-well plate previously coated with a CD3 antibody (final concentration 3 μg/mL), and a CD28 antibody (final concentration 5 ng/mL) was added. The culture was carried out for about 18 hours for the evaluation of the amounts of TNFα and IL-23, and about 48 hours for the evaluation of the amounts of IL-17A, IL-4, IL-5, and IL-13. After collecting the culture supernatant after culturing, the amount of each cytokine was measured by the sandwich ELISA method in the same manner as in Test Example 3, and the cytokine production suppression rate (inhibition rate) and the cytokine inhibitory activity (concentration for the inhibition rate of 50%) of each test compound were calculated.
The measurement results obtained by measuring the TNFα inhibitory activity and IL-5 inhibitory activity (50% inhibitory concentration) of the test compounds by the above method were evaluated in accordance with the following evaluated basis; A: less than 10 nM, B: 10 nM or more and less than 100 nM, and C: 100 nM or more. In addition, the measurement results obtained by measuring the IL-17A inhibitory activity, IL-23 inhibitory activity, IL-4 inhibitory activity, and IL-13 inhibitory activity (50% inhibitory concentration) of the test compounds were evaluated in accordance with the following evaluated basis; A: less than 500 nM, B: 500 nM or more and less than 5000 nM, and C: 5000 nM or more.

[6] = test system: substance P-induced pruritus behavior, ICR mice; test: Mouse pruritus model; format: in vivo; conditions: oral, substance P intradermally 2 hours after administration
Procedure: Evaluation was carried out using male ICR mice (5 to 7 weeks of age). A micro magnet was embedded under the skin of both hind limbs of the mice in advance, and the hair on the back of the mouse neck was shaved. On the day of the test, the test compound was dissolved or suspended in 0.5% w/v methylcellulose (0.5% MC) and orally administered. Two hours after administration of the test compound, 50 μL of 300 nM substance P dissolved in saline was intradermally administered to the back of the mouse neck. The blank was a non-pruritus-induced group orally administered with 0.5% MC instead of the test compound and intradermally administered with saline instead of substance P, and the pruritus induction control was a group orally administered with 0.5% MC instead of the test compound. The pruritus measurement system for small animals, MicroAct II, automatically measured pruritus behavior for 30 minutes immediately after intradermal administration.

[7] = finer grading of compounds rated A in Evaluation 1, read-out: PDE4 Inhibitory Activity (Evaluation 2)

IC50 (TNFα [5]) [nM]	SMILES	IC50 (TNFα [1]) [nM]	Residual ratio (% remaining for 30-minute reaction) [2]	Mouse Chronic Dermatitis Model (Test Example 8), Oral: edema suppression rate ([3]; oral, 0.3 to 10 mg/kg twice a day for 10 days)	Mouse Chronic Dermatitis Model (Test Example 8), Topical: edema suppression rate [3]	IC50 (PDE4; [7]) [nM]	IC50 (PDE4; scintillation proximity assay, read-out: PDE4 Inhibitory Activity (Evaluation 1; concentration for the inhibition rate of 50%)) [nM]	PDE4 inhibitory activity (PDE4; summary in words of Tables 57 to 69)	Mouse DTH Model (Test Example 11), Topical: edema suppression rate [4]	scratching behavior (pruritus behavior for 30 minutes) [6]
–	CC(O)C(F)(F)Oc1ccc(-c2nccs2)c2oc(N3CC4CC(C3)N4)nc12 (single isomer, unassigned) [Example 251, 1-((2-(3,6-Diazabicyclo[3.1.1]heptan-3-yl)-7-(thiazol-2-yl)benzo[d]oxazol-4-yl)oxy)-1,1-difluoropropan-2-ol]	< 100	A (A: a % remaining rate of 75% or more)	B (B: 40% or more and less than 70%)	A (A: 100% or more)	≤ 1	< 100	particularly excellent	B (B: 40% or more and less than 60%)	–
> 100	N#Cc1ccc(Oc2ccc3c(c2)COB3O)cc1 [crisaborole, reference compound]	–	–	–	C (C: less than 70%)	> 100	–	–	C (C: less than 40%)	–
–	CC(C)(C(=O)O)c1ccc(C(O)CCCN2CCC(C(O)(c3ccccc3)c3ccccc3)CC2)cc1 (stereo not shown) [fexofenadine, reference compound]	–	–	–	–	–	–	–	–	did not suppress scratching behavior
